Experiments:
Hepatotoxicity [1] = tested on: Hepatotoxicity;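 for HepSE Combined Scores: combined hepatic side effect score as listed in the training data of the Drug Induced Liver Injury Prediction System (DILIps)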;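 for HepSE bilirubinemia: bilirubinemia hepatic side effect score drawn from the DILIps training data, a prediction system for drug-induced liver injury; call rule not given here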;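 for HepSE cholelithiasis: hepatic side effect score for cholelithiasis, drawn from the DILIps training data for predicting drug-induced liver injury; call rule not given here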;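 for HepSE cirrhosis: cirrhosis hepatic side effect score taken from the DILIps (drug-induced liver injury prediction) training set; call rule not given here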; for HepSE hepatic failure: call rule not given here;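 for HepSE hepatomegaly: hepatic side effect score for hepatomegaly, taken from the training set of the DILIps drug-induced liver injury prediction system; call rule not given here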; for HepSE liver disease: call rule not given here
Hepatotoxicity [2] = tested on: Hepatotoxicity; remark: listed apart in the source;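 for HepSE Combined Scores: combined hepatic side effect score as listed in the training data of the Drug Induced Liver Injury Prediction System (DILIps)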;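 for HepSE bilirubinemia: bilirubinemia hepatic side effect score drawn from the DILIps training data, a prediction system for drug-induced liver injury; call rule not given here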;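 for HepSE cholelithiasis: hepatic side effect score for cholelithiasis, drawn from the DILIps training data for predicting drug-induced liver injury; call rule not given here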;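 for HepSE cirrhosis: cirrhosis hepatic side effect score taken from the DILIps (drug-induced liver injury prediction) training set; call rule not given here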; for HepSE hepatic failure: call rule not given here;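 for HepSE hepatomegaly: hepatic side effect score for hepatomegaly, taken from the training set of the DILIps drug-induced liver injury prediction system; call rule not given here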; for HepSE liver disease: call rule not given here
Hepatotoxicity [3] = tested on: Hepatotoxicity; remark: listed apart in the source;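 for HepSE Combined Scores: combined hepatic side effect score as listed in the training data of the Drug Induced Liver Injury Prediction System (DILIps)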;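 for HepSE bilirubinemia: bilirubinemia hepatic side effect score drawn from the DILIps training data, a prediction system for drug-induced liver injury; call rule not given here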;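 for HepSE cholelithiasis: hepatic side effect score for cholelithiasis, drawn from the DILIps training data for predicting drug-induced liver injury; call rule not given here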;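 for HepSE cirrhosis: cirrhosis hepatic side effect score taken from the DILIps (drug-induced liver injury prediction) training set; call rule not given here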; for HepSE hepatic failure: call rule not given here;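 for HepSE hepatomegaly: hepatic side effect score for hepatomegaly, taken from the training set of the DILIps drug-induced liver injury prediction system; call rule not given here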; for HepSE liver disease: call rule not given here
Hepatotoxicity [4] = tested on: Hepatotoxicity; remark: listed apart in the source;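 for HepSE Combined Scores: combined hepatic side effect score as listed in the training data of the Drug Induced Liver Injury Prediction System (DILIps)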;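 for HepSE bilirubinemia: bilirubinemia hepatic side effect score drawn from the DILIps training data, a prediction system for drug-induced liver injury; call rule not given here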;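 for HepSE cholelithiasis: hepatic side effect score for cholelithiasis, drawn from the DILIps training data for predicting drug-induced liver injury; call rule not given here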;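 for HepSE cirrhosis: cirrhosis hepatic side effect score taken from the DILIps (drug-induced liver injury prediction) training set; call rule not given here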; for HepSE hepatic failure: call rule not given here;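 for HepSE hepatomegaly: hepatic side effect score for hepatomegaly, taken from the training set of the DILIps drug-induced liver injury prediction system; call rule not given here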; for HepSE liver disease: call rule not given here
Hepatotoxicity [5] = tested on: Hepatotoxicity; remark: listed apart in the source; for HepSE hepatic failure: call rule not given here; for HepSE liver disease: call rule not given here
Hepatotoxicity [6] = tested on: Hepatotoxicity; remark: listed apart in the source; for HepSE hepatic failure: call rule not given here; for HepSE liver disease: call rule not given here
Hepatotoxicity [7] = tested on: Hepatotoxicity; remark: listed apart in the source
Hepatotoxicity [8] = tested on: Hepatotoxicity; remark: listed apart in the source
Hepatotoxicity [9] = tested on: Hepatotoxicity; remark: listed apart in the source
Hepatotoxicity [10] = tested on: Hepatotoxicity; remark: listed apart in the source
Hepatotoxicity [11] = tested on: Hepatotoxicity; remark: listed apart in the source
Hepatotoxicity [12] = tested on: Hepatotoxicity; remark: listed apart in the source
Hepatotoxicity [13] = tested on: Hepatotoxicity; remark: listed apart in the source
Hepatotoxicity [14] = tested on: Hepatotoxicity; remark: listed apart in the source

Row | SMILES | HepSE_cholelithiasis (Hepatotoxicity [1]) | HepSE_liver disease (Hepatotoxicity [2]) | HepSE_hepatomegaly (Hepatotoxicity [3]) | HepSE_cirrhosis (Hepatotoxicity [4]) | HepSE_hepatic failure (Hepatotoxicity [5]) | HepSE_Combined Scores (Hepatotoxicity [6]) | HepSE_bilirubinemia (Hepatotoxicity [7]) | HepSE_elevated liver function tests (Hepatotoxicity [8]) | HepSE_liver fatty (Hepatotoxicity [9]) | HepSE_jaundice (Hepatotoxicity [10]) | HepSE_hepatic necrosis (Hepatotoxicity [11]) | HepSE_cholecystitis (Hepatotoxicity [12]) | HepSE_hepatitis (Hepatotoxicity [13]) | HepSE_liver function tests abnormal (Hepatotoxicity [14]) | other results
1 | NCCCNCCSP(=O)(O)O [AMIFOSTINE] | – | – | – | – | – | – | – | – | – | – | – | – | – | – | HepSE_cholelithiasis (Hepatotoxicity [1]; Liver): 0; HepSE_liver disease (Hepatotoxicity [2]; Liver): 0; HepSE_hepatomegaly (Hepatotoxicity [3]; Liver): 0; HepSE_cirrhosis (Hepatotoxicity [4]; Liver): 0; HepSE_hepatic failure (Hepatotoxicity [5]; Liver): 0; HepSE_Combined Scores (Hepatotoxicity [6]; Liver): 0; HepSE_bilirubinemia (Hepatotoxicity [7]; Liver): 0; HepSE_elevated liver function tests (Hepatotoxicity [8]; Liver): 0; HepSE_liver fatty (Hepatotoxicity [9]; Liver): 0; HepSE_jaundice (Hepatotoxicity [10]; Liver): 0; HepSE_hepatic necrosis (Hepatotoxicity [11]; Liver): 0; HepSE_cholecystitis (Hepatotoxicity [12]; Liver): 0; HepSE_hepatitis (Hepatotoxicity [13]; Liver): 0; HepSE_liver function tests abnormal (Hepatotoxicity [14]; Liver): 0
2 | N#Cc1cc(NC(=O)C(=O)O)c(Cl)c(NC(=O)C(=O)O)c1 [LODOXAMIDE] | 0 | 0 | 0 | 0 | 0 | 0 | 0 | 0 | 0 | 0 | 0 | 0 | 0 | 0 | –
3 | CO/N=C(\C(=O)N[C@@H]1C(=O)N2C(C(=O)O)=C(COC(C)=O)CS[C@H]12)c1csc(N)n1 [CEFOTAXIME] | 0 | 0 | 0 | 0 | 0 | 2 | 0 | 0 | 0 | 1 | 0 | 0 | 1 | 0 | –
4 | CC1=C(/C=C/C(C)=C/C=C/C(C)=C/CO)C(C)(C)CCC1 [RETINOL] | – | – | – | – | – | – | – | – | – | – | – | – | – | – | HepSE_cholelithiasis (Hepatotoxicity [1]; Liver): 0; HepSE_liver disease (Hepatotoxicity [2]; Liver): 0; HepSE_hepatomegaly (Hepatotoxicity [3]; Liver): 0; HepSE_cirrhosis (Hepatotoxicity [4]; Liver): 0; HepSE_hepatic failure (Hepatotoxicity [5]; Liver): 0; HepSE_Combined Scores (Hepatotoxicity [6]; Liver): 0; HepSE_bilirubinemia (Hepatotoxicity [7]; Liver): 0; HepSE_elevated liver function tests (Hepatotoxicity [8]; Liver): 0; HepSE_liver fatty (Hepatotoxicity [9]; Liver): 0; HepSE_jaundice (Hepatotoxicity [10]; Liver): 0; HepSE_hepatic necrosis (Hepatotoxicity [11]; Liver): 0; HepSE_cholecystitis (Hepatotoxicity [12]; Liver): 0; HepSE_hepatitis (Hepatotoxicity [13]; Liver): 0; HepSE_liver function tests abnormal (Hepatotoxicity [14]; Liver): 0
5 | CC[C@@H](CO)NC(=O)[C@@H]1C=C2c3cccc4c3c(cn4C)C[C@H]2N(C)C1 [METHYSERGIDE] | 0 | 0 | 0 | 0 | 0 | 0 | 0 | 0 | 0 | 0 | 0 | 0 | 0 | 0 | –
6 | CN1CCC[C@@H]1Cc1c[nH]c2ccc(CCS(=O)(=O)c3ccccc3)cc12 | 0 | 0 | 0 | 0 | 0 | 2 | 1 | 0 | 0 | 0 | 0 | 0 | 0 | 1 | –
7 | COC(=O)C(c1ccccc1)C1CCCCN1 (configuration not stated) [METHYLPHENIDATE] | 0 | 0 | 0 | 0 | 0 | 1 | 0 | 0 | 0 | 0 | 0 | 0 | 0 | 1 | –
8 | Nc1nc2ccc(OC(F)(F)F)cc2s1 [RILUZOLE] | 0 | 0 | 0 | 0 | 0 | 3 | 0 | 0 | 0 | 1 | 0 | 1 | 1 | 0 | –
9 | [Cl-].[K+] [POTASSIUM CHLORIDE] | 0 | 0 | 0 | 0 | 0 | 0 | 0 | 0 | 0 | 0 | 0 | 0 | 0 | 0 | –
10 | C[N+](C)(C)CCOC(N)=O.[Cl-] [CARBACHOL] | 0 | 0 | 0 | 0 | 0 | 0 | 0 | 0 | 0 | 0 | 0 | 0 | 0 | 0 | –
11 | CC(C)C[C@H](NC(=O)[C@@H](COC(C)(C)C)NC(=O)[C@H](Cc1ccc(O)cc1)NC(=O)[C@H](CO)NC(=O)[C@H](Cc1c[nH]c2ccccc12)NC(=O)[C@H](Cc1cnc[nH]1)NC(=O)[C@@H]1CCC(=O)N1)C(=O)N[C@@H](CCCNC(=N)N)C(=O)N1CCC[C@H]1C(=O)NNC(N)=O [GOSERELIN] | 0 | 0 | 0 | 0 | 0 | 0 | 0 | 0 | 0 | 0 | 0 | 0 | 0 | 0 | –
12 | CCOC(=O)c1ncn2c1CN(C)C(=O)c1cc(F)ccc1-2 [FLUMAZENIL] | 0 | 0 | 0 | 0 | 0 | 0 | 0 | 0 | 0 | 0 | 0 | 0 | 0 | 0 | –
13 | Cc1cccc(CN2CCN(C(c3ccccc3)c3ccc(Cl)cc3)CC2)c1 (configuration not stated) [MECLIZINE] | 0 | 0 | 0 | 0 | 0 | 0 | 0 | 0 | 0 | 0 | 0 | 0 | 0 | 0 | –

Reference: ChEMBL document CHEMBL1909294, “Translating clinical findings into knowledge in drug safety evaluation--drug induced liver injury prediction system (DILIps)” (PLoS Comput Biol, 2011)
